Reference: patent US20230399341A1, “7-PHENYL SUBSTITUTED 2-AMINOQUINAZOLINE INHIBITORS OF HPK1” (MERCK SHARP & DOHME LLC, priority 2020, published 2023)

Biological target: T1, Human HPK1, catalytic domain (Homo sapiens, UniProt Q92918)
T1 sequence (Q92918 1-346): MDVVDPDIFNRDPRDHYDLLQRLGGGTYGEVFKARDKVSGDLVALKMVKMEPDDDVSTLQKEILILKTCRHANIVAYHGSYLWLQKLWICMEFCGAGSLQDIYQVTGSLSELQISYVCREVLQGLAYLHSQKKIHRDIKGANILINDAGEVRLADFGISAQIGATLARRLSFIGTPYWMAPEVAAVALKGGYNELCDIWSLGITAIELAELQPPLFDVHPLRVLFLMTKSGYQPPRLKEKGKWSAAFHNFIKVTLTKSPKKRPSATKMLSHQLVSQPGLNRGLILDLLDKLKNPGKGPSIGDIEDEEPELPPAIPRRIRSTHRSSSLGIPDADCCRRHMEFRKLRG
Assay: HPK1-SLP76 TR-FRET Assay
Format: biochemical
Details: 75 pM HPK1, ATP 10 uM, SLP76 10 nM, 30 min pre-incubation, 60 min reaction

Structure (SMILES) | IC50
Cc1c(-c2cc3nc(Nc4cc5c(cn4)CCN(C)C5)ncc3c(N)c2F)cnc2c1NCCO2 [Compound 2-142, 6-fluoro-7-(8-methyl-2,3-dihydro-1H-pyrido[2,3-b][1,4]oxazin-7-yl)-N~2~- (6-methyl-5,6,7,8-tetrahydro-2,6-naphthyridin-3-yl)quinazoline-2,5-diamine] | 1.23 nM
Cc1c(-c2cc3nc(Nc4cnc5c(c4)CN(C(C)C)CC5)ncc3c(N)c2F)cnc2c1NCCO2 [Compound 2-175, 6-fluoro-7-(8-methyl-2,3-dihydro-1H-pyrido[2,3-b][1,4]oxazin-7-yl)-N~2~- [6-(propan-2-yl)-5,6,7,8-tetrahydro-1,6-naphthyridin-3-yl]quinazoline-2,5-diamine] | 0.0298 nM
Cc1c(-c2cc3nc(Nc4ccc(C5CCN(C)C5=O)cc4)ncc3cc2F)cnc2c1NCCO2 (single isomer, unassigned) [Compound 1-127, (R of S)-3-(4-{[6-fluoro-7-(8-methyl-2,3-dihydro-1H-pyrido[2,3-b][1,4]oxazin-7-yl)quinazolin-2-yl]amino}phenyl)-1-methylpyrrolidin-2-one] | 0.949 nM
COc1ncccc1Nc1ncc2c(N)c(F)c(-c3cnc4c(c3C)NCCO4)cc2n1 [Compound 2-27, 6-fluoro-N~2~-(2-methoxypyridin-3-yl)-7-(8-methyl-2,3-dihydro-1H-pyrido[2,3-b][1,4]oxazin-7-yl)quinazoline-2,5-diamine] | 0.117 nM
COc1cc2c(cc1Nc1ncc3ccc(Oc4ccc(C(=O)N5CCN(C)CC5)cc4)cc3n1)CN(C)CC2 [Compound 4-6, [4-({2-[(6-methoxy-2-methyl-1,2,3,4-tetrahydro-isoquinolin-7-yl)amino]-quinazolin-7-yl}oxy)phen-yl](4-methylpiperazin-1-yl)methanone] | 583 nM
COc1cc2c(cc1Nc1ncc3ccc(NC4(C)COC4)cc3n1)CN(C)CC2 [Compound 3-55, N~2~-(6-methoxy-2-methyl-1,2,3,4-tetrahydroisoquinolin-7-yl)-N~7~-(3-methyloxetan-3-yl)quinazoline-2,7-diamine] | 240 nM
COc1cc2c(cc1Nc1ncc3ccc(NC4(C(=O)N(C)C)CCC4)cc3n1)CN(C)CC2 [Compound 3-61, 1-({2-[(6-methoxy-2-methyl-1,2,3,4-tetrahydroisoquinolin-7-yl)amino]quinazolin-7-yl}-amino)-N,N-dimethylcyclo-butane-1-carboxamide] | 824 nM
COc1cc2c(cc1Nc1ncc3c(N)c(F)c(-c4cnc5c(c4C)NCCO5)cc3n1)CN(C)CC2 [Compound 2-2, 6-fluoro-N~2~-(6-methoxy-2-methyl-1,2,3,4-tetrahydroisoquinolin-7-yl)-7-(8-methyl-2,3-dihydro-1H-pyrido[2,3-b][1,4]oxazin-7-yl)quinazoline-2,5-diamine] | 0.0915 nM
CN1CCc2ccc(Nc3ncc4c(N)c(F)c(-c5cnc6c(c5Cl)NCCO6)cc4n3)cc2C1 [Compound 2-160, 7-(8-chloro-2,3-dihydro-1H-pyrido[2,3-b][1,4]oxazin-7-yl)-6-fluoro-N~2~-(2-methyl-1,2,3,4-tetrahydroisoquinolin-7-yl)quinazoline-2,5-diamine] | 0.0326 nM
COc1cc2c(cc1Nc1ncc3c(N)c(F)c(-c4ccc(-c5ncco5)cc4C)cc3n1)CN(C)CC2 [Compound 2-60, 6-fluoro-N~2~-(6-methoxy-2-methyl-1,2,3,4-tetrahydroisoquinolin-7-yl)-7-[2-methyl-4-(1,3-oxazol-2-yl)phenyl]quinazoline-2,5-diamine] | 469 nM
COc1cc2c(cc1Nc1ncc3ccc(-c4cncc(N5CCNCC5)c4)cc3n1)CNCC2 [Compound 1-50, N-(6-methoxy-1,2,3,4-tetrahydroisoquinolin-7-yl)-7-[5-(piperazin-1-yl)pyridin-3-yl]quinazolin-2-amine] | 5.9 nM
CCNS(=O)(=O)c1cccc(-c2ccc3cnc(Nc4cc5c(cc4OC)CCNC5)nc3c2)c1 [Compound 1-84, N-ethyl-3-{2-[(6-methoxy-1,2,3,4-tetrahydroisoquinolin-7-yl)amino]quinazolin-7-yl}benzene-1-sulfonamide] | 53.7 nM
COc1cc2c(cc1Nc1ncc3ccc(OCC4CCN(c5cncc(C)n5)CC4)cc3n1)CN(C)CC2 [Compound 4-4, N-(6-methoxy-2-methyl-1,2,3,4-tetrahydroisoquin-olin-7-yl)-7-{[1-(6-methyl-pyrazin-2-yl)piperidin-4-yl]methoxy}quinazolin-2-amine] | 158 nM
COc1cc2c(cc1Nc1ncc3ccc(-c4cnc5cccnc5c4)cc3n1)CN(C)CC2 [Compound 1-25, N-(6-methoxy-2-methyl-1,2,3,4-tetrahydroisoquinolin-7-yl)-7-(,15-naphthyridin-3-yl)quinazolin-2-amine] | 20 nM
COc1cc2c(cc1Nc1ncc3ccc(-c4cncc(C(=O)N5CCOCC5)c4)cc3n1)CNCC2 [Compound 1-47, (5-{2-[(6-methoxy-1,2,3,4-tetrahydroisoquinolin-7-yl)amino]quinazolin-7-yl}pyridin-3-yl)(morpholin-4-yl)methanone] | 273 nM
CNC(=O)C1(c2ccc(Nc3ncc4c(N)c(F)c(-c5cnc6c(c5C)NCCO6)cc4n3)cc2)CCCC1 [Compound 2-83, 1-(4-((5-amino-6-fluoro-7-(8-methyl-2,3-dihydro-1H-pyrido[2,3-b][1,4]oxazin-7-yl)quinazolin-2-yl)amino)phenyl)-N-methylcyclopentane-1-carboxamide] | 0.0417 nM
COCC1CN(c2ccc3cnc(Nc4cc5c(cc4OC)CCN(C)C5)nc3c2)C1 [Compound 3-68, 7-[3-(methoxymethyl)azetidin-1-yl]-N-(6-methoxy-2-methyl-1,2,3,4-tetrahydroisoquinolin-7-yl)quinazolin-2-amine] | 520 nM
COc1ccc(-c2ccc3cnc(Nc4cc5c(cc4OC)CCNC5)nc3c2)cn1 [Compound 1-39, 7-(6-methoxypyridin-3-yl)-N-(6-methoxy-1,2,3,4-tetrahydroisoquinolin-7-yl)quinazolin-2-amine] | 34.8 nM
COc1cc2c(cc1Nc1ncc3ccc(NCc4ccc5c(c4)C(=O)NC5)cc3n1)CN(C)CC2 [Compound 3-28, 6-[({2-[(6-methoxy-2-methyl-1,2,3,4-tetrahydroisoquinolin-7-yl)amino]quinazolin-7-yl}-amino)methyl]-2,3-dihydro-1H-isoindol-1-one] | 51.8 nM
Cc1c(-c2c(F)c(N)c3cnc(Nc4ccc(CC(C)(C)O)cc4)nc3c2Cl)cnc2c1NCCO2 [Compound 2-164, 1-(4-{[5-amino-8-chloro-6-fluoro-7-(8-methyl-2,3-dihydro-1H-pyrido[2,3-b][1,4]oxazin-7-yl)quinazolin-2-yl]amino}phenyl)-2-methylpropan-2-ol] | 0.487 nM
CCS(=O)(=O)Cc1ccc(Nc2ncc3cc(F)c(-c4cnc5c(c4C)NCCO5)cc3n2)cc1 [Compound 1-134, N-{4-[(ethylsulfonyl)methyl]phe-nyl}-6-fluoro-7-(8-methyl-2,3-dihydro-1H-pyrido[2,3-b][1,4]oxazin-7-yl)quinazolin-2-amine] | 0.0425 nM
Cc1c(N)cncc1-c1cc2nc(Nc3ccc4c(c3)CN(C)CC43CC3)ncc2c(N)c1F [Compound 2-153, 7-(5-amino-4-methylpyridin-3-yl)-6-fluoro-N~2~-(2′-methyl-2′,3′-dihydro-1′H-spiro[cyclopropane-1,4′-isoquinolin]-7′-yl)quinazoline-2,5-diamine] | 0.0471 nM
